The test system of data set [1] is 6-OHDA-induced PD mouse model. Further details: method as in PMID 31689937. The conditions noted are these: cited from earlier work.
The next data set addresses T1, recombinant α-synuclein (Homo sapiens, UniProt P37840).
T1 construct: made in house; host or cells: Escherichia coli BL21
Put plainly: In vitro recombinant α-synuclein aggregation, Western blot. To be noted: 100 μM, 37 °C, 3 or 5 days. The format is biochemical. How it is done: Figure 2 PCiv prevents α-synuclein aggregation in vitro and in cultured neurons with PFF treatment. (A) Representative Western blots showing the degree of recombinant α-synuclein (αSyn) aggregation in a test tube in the presence or absence of PCiv (100 μM) at the indicated incubation duration (phosphate-buffered saline [PBS], 37 °C for 3 or 5 days). Aggregation of α-synuclein was determined using α-synuclein antibody. (B) Quantification of the relative amount of α-synuclein aggregate in high molecular weight sizes in panel A (n = 3 per group). […] (D) Quantification of pS129-αSyn immunofluorescence signal intensities in MAP2-positive cortical neurons in each experimental group (n = 15 cells from three separate experiments). (E) Cell viability assessment in the indicated experimental groups was monitored by CCK-8 assay (n = 3 per group). The data are expressed as means ± SEMs. * p < 0.05, ** p < 0.01, *** p < 0.001, and **** p < 0.0001, ANOVA test followed by Tukey’s post hoc analysis. […]
(A) Representative Western blots showing the degree of recombinant α-synuclein (αSyn) aggregation in a test tube in the presence or absence of t-Khellatone, PCiii, and PCiv (100 μM) at 0 and 5 days of incubation (phosphate-buffered saline [PBS], 37 °C for 5 days). Aggregation of α-synuclein was determined using α- synuclein antibody. […]

Data set [2] can be described thus: Rat pharmacokinetics after intravenous and oral administration. The conditions noted are these: 10 mg/kg, rats. Format: in vivo. How it is done: Figure 3 Pharmacokinetic analysis and tissue distribution of PCiv. (A) Pharmacokinetic analysis of blood PCiv levels at each indicated time point following intravenous or oral administration of PCiv (10 mg/kg) determined by ultra-performance liquid chromatography (n = 4 rats for oral and 5 rats for intravenous administration). (B) Quantification of PCiv levels in each indicated tissue (ng/g tissue weight) determined by ultra-performance liquid chromatography (n = 3 rats, tissues collected 15 min after intravenous PCiv administration (10 mg/kg). PCiv was dissolved in a vehicle (DMSO:PEG400:saline ratio of 5:70:25) for solubilization. The quantified data are expressed as means ± standard deviations.
In vivo rat pharmacokinetic studies were performed for intravenous and oral administration of PCiv as previously reported. Sprague-Dawley rats (8 weeks old, 260–280 g) were purchased from Orient Bio Inc. (Seongnam, Korea). Rats were maintained with free access to food and water under a 12:12 h light/dark cycle for 1 week. For pharmacokinetic studies, under anesthetic conditions (20 mg/kg tiletamine/zolazepam [Zoletil; Vibrac Laboratories, Carros, France] administered intramuscularly), the femoral vein and artery were surgically cannulated using polyethylene tubing (PE50; Clay Adams, Parsippany, NJ, USA) in fasted rats. Then, PCiv was administered intravenously and orally at a dose of 10 mg/kg (n = 4–5). The drug was dissolved in a vehicle (DMSO:PEG400:saline at a ratio of 5:70:25). Blood samples (approximately 100 μL) were collected at predetermined time points (0, 1, 5 (intravenous administration only), 15, 30, 60, 120, 180, 240, 360, and 480 min) after drug administration. To prevent blood clots and fluid loss, the cannula to the femoral artery was flushed with 20 IU/mL heparinized saline, and the same volume of saline was pushed to the cannula for the femoral vein. The plasma fraction was immediately obtained after centrifugation at 14,000 rpm for 15 min at 4 °C and then stored at −20 °C prior to analysis using the ultra-high-performance liquid chromatography (UHPLC)-diode array detector (DAD) method. Similarly, a tissue distribution study was performed 15 min after the intravenous bolus injection (10 mg/kg), as previously described. Four major tissues, including tissues from the brain, heart, kidneys, and liver, were collected. Based on the wet weights of the tissue samples, a two-fold volume of PBS was added and homogenized. The tissue homogenates were stored at −20 °C before UHPLC-DAD analysis. The UHPLC-DAD system consisted of an Agilent Technologies 1290 Infinity II equipped with a DAD (G7117A), an autosampler (G71678B), a binary pump (G7104A), and a multicolumn thermostat (G7116B). The PCiv level was determined using a CapcellpakTM C18 5 μm column (250 × 1.5 mm, Shiseido Fine Chemical Co., Tokyo, Japan), as previously described. The mobile phase was composed of 0.1% phosphoric acid and acetonitrile and eluted in the gradient mode at a flow rate of 0.2 mL/min. A DAD detector was applied at 321 nm, with an injection volume of 10 μL. The calibration range was 20–10,000 ng/mL with good linearity (R = 0.99783 with 1/× weighting). The tissue concentration levels were calculated as the PCiv amount (ng) per gram of organ weight.

Read-outs that look alike come from different tables or passages of the source.

In the case of `C/C=C(\C)C(=O)O[C@@H]1c2c(ccc3ccc(=O)oc23)OC(C)(C)[C@H]1OC(C)=O` (relative stereo) [PCiii, peucedanocoumarin III], in data set [1], the neuroprotection entry was “neuroprotective”.
For orientation: half-life means how long it takes for the measured level to halve. By bioavailability is commonly meant dose-corrected exposure relative to a reference, in per cent. For `C/C=C(\C)C(=O)O[C@H]1[C@H](OC(C)=O)c2c(ccc3ccc(=O)oc23)OC1(C)C` (relative stereo) [PCiv, trans-4′-acetyl-3′-tigloylkhellactone], the “aggregation of recombinant α-synuclein into high molecular weight species” value at recombinant α-synuclein is “robustly blocked”. The half-life is 1.43 h in data set [2] (Sprague-Dawley, rat, plasma, iv, intravenous, read-out: mean half-life) and approximately 1.62 h in data set [2] (Sprague-Dawley, rat, plasma, po, oral administration, read-out: half-life). Besides, in data set [2] (Sprague-Dawley, rat, plasma, po, oral, read-out: absolute bioavailability), the bioavailability was found to be 9.96%. In addition, the Vd in data set [2] (Sprague-Dawley, rat, plasma, intravenous, read-out: mean steady-state volume of distribution) is 6.62 L/kg. In data set [2] (Sprague-Dawley, rat, plasma, intravenous, read-out: mean systemic total clearance), the clearance came out at 136 mL/min/kg. Further, the absolute bioavailability in data set [2] (oral) is on record as approximately 10%. Further, the maximum concentration result in data set [2] (oral) is reported as “low”.

The record behind these values is PMC9369442, “Synthetic Peucedanocoumarin IV Prevents α-Synuclein Neurotoxicity in an Animal Model of Parkinson’s Disease” (International Journal of Molecular Sciences, 2022).
